# Laboratory results taken from patent US20040006784A1, “Methods and compositions for producing plants and microorganisms that express feedback insensitive threonine dehydratase/deaminase” (priority 1997, published 2004).
# Key:
# [1] = biological target: T1, threonine dehydratase/deaminase (TD) (Arabidopsis thaliana, UniProt Q9ZSS6, R499C/R544H); conditions: extracts from GM11b (omr1/omr1) plants compared with wild type plants; Mourad and King 1995; cited from earlier work
# T1 construct: from tissue; host or cells: extracts of Arabidopsis thaliana GM11b (omr1/omr1) plants
# T1 sequence (Q9ZSS6 92-592 R499C/R544H): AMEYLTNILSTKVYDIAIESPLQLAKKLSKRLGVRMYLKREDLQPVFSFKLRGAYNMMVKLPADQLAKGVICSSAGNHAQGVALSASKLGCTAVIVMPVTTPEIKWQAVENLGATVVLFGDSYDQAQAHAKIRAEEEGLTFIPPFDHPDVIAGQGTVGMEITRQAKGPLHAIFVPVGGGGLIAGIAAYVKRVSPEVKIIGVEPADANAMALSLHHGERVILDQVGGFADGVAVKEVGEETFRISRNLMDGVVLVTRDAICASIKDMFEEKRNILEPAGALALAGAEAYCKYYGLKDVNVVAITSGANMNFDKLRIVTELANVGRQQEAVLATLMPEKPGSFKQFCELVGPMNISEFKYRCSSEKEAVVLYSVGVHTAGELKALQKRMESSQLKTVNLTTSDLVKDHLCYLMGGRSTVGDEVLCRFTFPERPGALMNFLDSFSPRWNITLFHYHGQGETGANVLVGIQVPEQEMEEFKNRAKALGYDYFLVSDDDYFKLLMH
# [2] = test system: Arabidopsis thaliana Columbia wild type; test: Germination and growth of seedlings in agar medium supplemented with L-O-methylthreonine; assay type: in vivo; conditions: 0.2 mM L-O-methylthreonine agar medium, T1 seed screen
# From the text: Using the vacuum infiltration method of Bent et al. (1994), L-O-methylthreonine-sensitive Arabidopsis thaliana Columbia wild type were transformed with pCM35S-omr1. Ten pots, each with 3-4 plants, were transformed and T1 seeds were harvested from the To transformed plants of each pot separately. […] In a crowded plate, it is possible to identify the transformants by looking at the bottom of the plate, the transformants show root growth while the nontransformants will have none. After three weeks of growth in the 0.2 mM L-O-methylthreonine agar medium, each of the 5 positive transformants was transferred to soil, kept separately and allowed to self-fertilize to produce the T2 seed.
# manmalian cell cultures = conditions: by inhibiting incorporation of Ile into proteins; Rabinovitz et al. 1955; cited from earlier work
# [3] = test system: E. coli prototroph host DH5α; test: Growth of E. coli DH5α on minimal medium supplemented with L-O-methylthreonine (second complementation experiment); assay type: cell-based
# Method: In the second complementation experiment, the E. coli prototroph host DH5α was transformed with pTrc-td23 or pUCK-td23 and plated on minimal medium supplemented with varying concentrations of the toxic analog L-O-methylthreonine. Both of the constructs were able to confer upon DH5α resistance to 30 μM L-O-methylthreonine. […] Therefore omr1 provides a new environmentally friendly selectable marker for genetic transformation of bacteria.
# [4] = test system: Arabidopsis thaliana Columbia wild type; conditions: agar medium; Mourad and King, 1995; cited from earlier work
# [5] = test system: T2 seedlings of omr1 transgenic Arabidopsis; test: T2 seedlings of omr1 transformants on L-O-methylthreonine agar medium; assay type: in vivo, Arabidopsis thaliana; conditions: 0.2 mM L-O-methylthreonine agar medium, 50 T2 seeds/transformant, each of 5 plates
# Method: The T2 seed was harvested from each of the 5 positive T1 transformants and 50 T2 seeds/transformant were planted in a separate petri plate containing 0.2 mM L-O-methylthreonine agar medium. […] This slightly truncated precursor mutant TD was able to translocate to the chloroplast and confer upon transgenic plants resistance to OMT.
SMILES,"resistance of TD activity to feedback inhibition by Ile, GM11b extracts versus wild type extracts [1]",appearance of nontransformed seedlings after emergence of the cotyledons [2],effect on growth of mammalian cell cultures (manmalian cell cultures),"L-O-methylthreonine concentration to which resistance was conferred ([3]; DH5α transformed with pTrc-td23 or pUCK-td23 (omr1), minimal medium) [µM]","growth of bacterial colonies on plates with L-O-methylthreonine ([3]; untransformed DH5α, minimal medium supplemented with varying concentrations of L-O-methylthreonine)",concentration known to completely inhibit the growth of wild type seedlings beyond the cotyledonous stage [4] [mM],T2 seedlings resistant to L-O-methylthreonine [5] [%]
"CC[C@H](C)[C@H](N)C(=O)O [Ile, isoleucine]",about 50 fold,,,,,,
CO[C@H](C)[C@H](N)C(=O)O [L-O-methylthreonine],,completely bleached,inhibits growth,30,No bacterial colonies grew,0.2,≥ 75
